Paper PMC4526202, “Identification of a botanical inhibitor of intestinal diacylglyceride acyltransferase 1 activity via in vitro screening and a parallel, randomized, blinded, placebo-controlled clinical trial” (Nutrition & Metabolism, 2015)
pIC50: −log10 of the molar value.

Legend:
[1] = molecular target: T1, DGAT1 (human small intestinal microsomal preparation) (Homo sapiens, UniProt O75907); assay: Cell-free DGAT1 enzyme assay (LC-MS readout); assay type: biochemical
T1 construct: using a human small intestinal microsomal preparation (BD Biosciences) as the enzyme source; tissue BD Biosciences; host or cells: human small intestine microsomes
T1 sequence (O75907 1-488): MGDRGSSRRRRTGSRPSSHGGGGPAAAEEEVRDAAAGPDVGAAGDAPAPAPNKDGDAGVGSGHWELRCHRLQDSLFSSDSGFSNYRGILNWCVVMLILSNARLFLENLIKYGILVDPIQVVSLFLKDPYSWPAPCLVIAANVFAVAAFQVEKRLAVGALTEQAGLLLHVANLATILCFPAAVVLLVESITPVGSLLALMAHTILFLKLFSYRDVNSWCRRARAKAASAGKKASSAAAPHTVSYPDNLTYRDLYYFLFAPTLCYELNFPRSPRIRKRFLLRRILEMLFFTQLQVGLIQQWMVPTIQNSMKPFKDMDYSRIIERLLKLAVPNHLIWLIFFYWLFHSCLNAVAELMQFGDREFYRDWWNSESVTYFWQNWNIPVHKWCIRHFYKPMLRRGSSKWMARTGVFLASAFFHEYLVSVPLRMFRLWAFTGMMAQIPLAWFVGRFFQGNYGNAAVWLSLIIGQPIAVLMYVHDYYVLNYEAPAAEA
Method: A cell-free DGAT1 assay was established using a human small intestinal microsomal preparation (BD Biosciences) as the enzyme source, and dioleoyl glycerol and palmitoleoyl Coenzyme A (CoA) as substrates (Sigma). Dioleoyl glycerol was dissolved in DMSO and diluted to 600 μM with 175 mM Tris–HCl and 100 mM MgCl2 (Tris/MgCl2) buffer. Palmitoleoyl CoA was dissolved in1.5 % acetone water solution (Fisher Scientific) to 150 μM. Microsomes were diluted to 25 μg/mL with 3.5 mg/mL BSA in Tris MgCl2 buffer. To a 1.5 mL tube, 67 μL of each palmitoleoyl CoA s and dioleoyl glycerol solutions (1:1 ratio) were added and the reaction was initiated by the addition of 67 μL of microsomes. The reaction was incubated in a 37 °C water bath for 60 min. The reaction was stopped by the addition of 1 mL of extraction solvent (isopropanol:dichloromethane (1:1 v/v) with 2.4 % formic acid) containing 1 μg/mL internal standard (glyceryl triolein, Sigma) to each tube and mixed by vortexing. The tubes were centrifuged at 10,000Xg for 3 min. 500 μL of the bottom phase was filtered through a Millex-HV syringe driven filter unit with tube outlet (PVDF @ 0.45 μm, Millipore) and transferred to LC-MS vials (12x32 mm glass screw neck, preslit cap & PTFE/silicone septa, Waters). Phytochemicals (Sigma), botanical extracts and positive control were diluted in DMSO and added to the reaction with the substrates at the desired concentration. The DGAT1 inhibitor A922500 (Tocris) was used as positive control at a concentration of 40 nM.
Refer to Table 3 for the mobile phase program. Solvent A: 0.1 % ammonium acetate in water; Solvent B: 0.1 % acetic acid in acetonitrile; Solvent C: 0.1 % acetic acid in isopropanol; all solvents were from Fisher Scientific. Injection volume: 10 μL. Column: Acquity BEH C18 1.7 μm, 2.1 x 50 mm. Effluent from the column was directed to the electrospray source of the mass spectrometer. Electrospray conditions: positive ion mode; cone voltage: […]; desolvation temperature: 450 °C; source temperature: 140 °C; nebulizer gas flow: 800 L/h; cone gas flow: 10 L/h. The mass spectrometer was operated at 20,000 resolving power and scans from m/z 100–1200 were acquired with a cycle time of 0.25 s. Selected ion chromatograms were plotted for the following: m/z 875 representing the ammoniated molecular ion for triacylglycerol reaction product containing 2 oleic acid and 1 palmitoleic acid moieties (C18:1/C18:1/C16:1); m/z 903 for the ammoniated molecular ion of glyceryl triolein (C18:1/C18:1/C18:1) internal standard. Quantification was determined based on area counts of the product relative to the internal standard.
Dose response curves for the cell-free DGAT1 assay were fitted with a log (inhibitor) vs. response, variable slope (four parameters) equation. Cellular DGAT1 assay data is shown as mean ± standard error of mean (SEM) and was analyzed by two-way ANOVA with Bonferroni's multiple comparison test. The primary outcome variable, serum TG level, is presented as mean ± SEM of baseline (fasting) subtracted change in serum TG after the HFM challenge. Area under the curve (AUC) was determined using the trapezoidal method. Comparisons between groups were made using unpaired t-test with Welch’s correction. A significant effect of investigational product was defined as P < 0.05. All statistical analyses were done using Prism-Graph Pad Software (San Diego, CA).

[2] = test system: DGAT1 activity / TG synthesis in HEK293H cells; assay: Cellular DGAT1 assay: [14C]-glycerol incorporation into TG; assay type: cell-based, human
Text: Three different cell lines, human colorectal (HT-29), human embryonic kidney (HEK293H) and human hepatic (HEPG2) were screened for the presence of both DGAT1 and DGAT2 protein. The HEK293H cell line contained DGAT1 and little to no DGAT2 protein (Additional file 1: Figure S1), therefore, a cellular DGAT1 assay was established in HEK293H cells to measure the synthesis of TG. HEK293 cell line has previously been reported to contain only DGAT1 and not DGAT2, and has been validated as an in vitro model to determine TG synthesis via DGAT1 [34].
The DGAT1 activity was determined by measuring the incorporation of [^14C]-glycerol (1 μCi/mL, Perkin-Elmer) into [^14C]-TG during a 5 h incubation with 0.3 mM oleic acid/BSA in HEK293H cells. […] Silica gel spots corresponding to lipid species were scraped into scintillation vials and the incorporated radioactivity was quantified using a MicroBeta TriLux (Perkin-Elmer). […]
Dose response curves for the cell-free DGAT1 assay were fitted with a log (inhibitor) vs. response, variable slope (four parameters) equation. Cellular DGAT1 assay data is shown as mean ± standard error of mean (SEM) and was analyzed by two-way ANOVA with Bonferroni's multiple comparison test. […] Area under the curve (AUC) was determined using the trapezoidal method. […]

[3] = single phytochemicals, mean of duplicates

Compound | pIC50 [1, 3] | also measured
O=C(Nc1ccccc1)Nc1ccc(-c2ccc(C(=O)[C@@H]3CCC[C@H]3C(=O)O)cc2)cc1 [A-922500] |  | pIC50 ([1]; synthetic inhibitor): 7.40; pIC50 ([1]; synthetic inhibitor, listed as A922500): 7.40; oleic acid induced DGAT1 enzyme activity as measured by 14C label TG levels [2]: inhibited
Oc1cc(O)c2cc(O)c(-c3ccc(O)c(O)c3)[o+]c2c1 [Cyanidin Chloride] | 5.51 | 
O=C(O[C@@H]1Cc2c(O)cc(O)cc2O[C@@H]1c1cc(O)c(O)c(O)c1)c1cc(O)c(O)c(O)c1 [EGCG, Epigallocatechin Gallate] | 6.18 | 
O=c1oc2c(O)c(O)cc3c(=O)oc4c(O)c(O)cc1c4c23 [Ellagic Acid] | 5.46 | 
O=C(O)c1cc(O)c(O)c(O)c1 [Gallic Acid] | 5.57 | 
Punicalagins | 6.59 | 
